Test: recombinant barcode read abundance after kanamycin selection (control-corrected) (log10(CPM+1)); higher = more efficient recombination; sequences stand for … in AGTGCAGAGAAAATCGGCCAGTTTTCTCTGCCTGCAGTCCGCATGCCGT…AGATTTATGCAGCGGACTGCCTTTCTCCCAAAGTGATAAACCGGACAGTATCATGGACCGGTTTTCCCGGTAATCCGTATTTGCAAGGTTGGTTTCACT; site = the 11-nt target
Method in brief: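 IS621 bridge RNA target-binding loops were paired with targets in a pooled library tested in E. coli. After co-electroporation with a donor plasmid, cells were plated in two replicates on chloramphenicol/ampicillin LB agar (control) and on chloramphenicol/ampicillin/kanamycin carrying 0.1 mM IPTG. Barcodes at recombinant junctions were counted as counts per million, averaged and control-corrected to give recombination efficiency. Values are log10(CPM+1).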
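Further: IS621 recombinase and bridge RNA in Escherichia coli cells.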

“TAACTTACTTGGGTTCTAACCTGTTGCAT (site TAACATACTAT)” and “TAACTTACTTGGGTTCTAACCTGTTGCAT (site TAACCTACTAT)” are within 0.2 log units of each other in “recombinant barcode read abundance (log10)” value: 0.179 for the first, 0.0991 for the second.

Going from “TAACTTACTTGGGTTCTAACCTGTTGCAT (site TAACGTACTAT)” to “TAACTTACTTGGGTTCTAACCTGTTGCAT (site TAACTTACTAT)”, the “recombinant barcode read abundance (log10)” value rises from 0.0567 to 0.341.

Compared with “TAAGATGCTTGGGTTCTAACCTGTTGCGG (site GCGACATCTAG)”, “TAAGATGCTTGGGTTCTAACCTGTTGCGG (site TAAGATGCTCC)” is higher in “recombinant barcode read abundance (log10)” value: 0.0149 for the first, 1.78 for the second.

Going from “TAAGGCCCTTGGGTTCTAACCTGTTGCTT (site TAAGGCCCTAA)” to “TAAGGCCCTTGGGTTCTAACCTGTTGCTT (site TCAGGCCCTAG)”, the “recombinant barcode read abundance (log10)” value falls from 1.56 to 0.33.

Going from “TAAGTCCCTTGGGTTCTAACCTGTTGCCT (site AAAGTCCCTAG)” to “TAAGTCCCTTGGGTTCTAACCTGTTGCCT (site CAAGTCCCTAG)”, the “recombinant barcode read abundance (log10)” value rises from 0.233 to 0.583.

Going from “TAAGTCCCTTGGGTTCTAACCTGTTGCCT (site GAAGTCCCTAG)” to “TAAGTCCCTTGGGTTCTAACCTGTTGCCT (site TAAGTCCCTAG)”, the “recombinant barcode read abundance (log10)” value rises from 0.017 to 1.9.

“TAATCGCCTTGGGTTCTAACCTGTTGCCT (site TAATCGACTAG)” and “TAATCGCCTTGGGTTCTAACCTGTTGCCT (site TAATCGCCTAG)” are within 0.2 log units of each other in “recombinant barcode read abundance (log10)” value: 0.122 for the first, 0.126 for the second.

“TAATCGCCTTGGGTTCTAACCTGTTGCCT (site TAATCGGCTAG)” and “TAATCGCCTTGGGTTCTAACCTGTTGCCT (site TAATCGTCTAG)” are within 0.2 log units of each other in “recombinant barcode read abundance (log10)” value: 0.102 for the first, 0 for the second.

“TAATCTCCTTGGGTTCTAACCTGTTGCGT (site GGTGGCTCTTG)” and “TAATCTCCTTGGGTTCTAACCTGTTGCGT (site TAATCTCCTAC)” are within 0.2 log units of each other in “recombinant barcode read abundance (log10)” value: 0.0934 for the first, 0.167 for the second.

Compared with “TAATGACCTTGGGTTCTAACCTGTTGCTT (site TAATGACCTAA)”, “TAATGACCTTGGGTTCTAACCTGTTGCTT (site TAATGACCTAT)” is lower in “recombinant barcode read abundance (log10)” value: 0.816 for the first, 0.123 for the second.

“TAATGTACTTGGGTTCTAACCTGTTGCTT (site TAAAGTACTAA)” and “TAATGTACTTGGGTTCTAACCTGTTGCTT (site TAACGTACTAA)” are within 0.2 log units of each other in “recombinant barcode read abundance (log10)” value: 0.0506 for the first, 0.0626 for the second.

“TAATGTACTTGGGTTCTAACCTGTTGCTT (site TAAGGTACTAA)” and “TAATGTACTTGGGTTCTAACCTGTTGCTT (site TAATGTACTAA)” are within 0.2 log units of each other in “recombinant barcode read abundance (log10)” value: 0.195 for the first, 0.0687 for the second.

First: TACAACACTTGGGTTCTAACCTGTTGCGT (site GTAGGTCCTCG)
Second: TACAACACTTGGGTTCTAACCTGTTGCGT (site TACAACACTAC)
The “recombinant barcode read abundance (log10)” value of the first is lower: 0.318 for the first, 1.71 for the second.

Going from “TACAAGTCTTGGGTTCTAACCTGTTGCGG (site TACAAGGCTCC)” to “TACAAGTCTTGGGTTCTAACCTGTTGCGG (site TACAAGTCTCC)”, the “recombinant barcode read abundance (log10)” value rises from 0.0774 to 1.88.

Compared with “TACACGACTTGGGTTCTAACCTGTTGCGG (site TACACGACTCC)”, “TACACGACTTGGGTTCTAACCTGTTGCGG (site TACACTACTCG)” is lower in “recombinant barcode read abundance (log10)” value: 1.51 for the first, 0 for the second.

Compared with “TACAGAGCTTGGGTTCTAACCTGTTGCGG (site TAAAGAGCTCC)”, “TACAGAGCTTGGGTTCTAACCTGTTGCGG (site TACAGAGCTCC)” is higher in “recombinant barcode read abundance (log10)” value: 0.363 for the first, 2.36 for the second.

Going from “TACAGAGCTTGGGTTCTAACCTGTTGCGG (site TAGAGAGCTCC)” to “TACAGAGCTTGGGTTCTAACCTGTTGCGG (site TATAGAGCTCC)”, the “recombinant barcode read abundance (log10)” value rises from 0.127 to 0.488.

Compared with “TACAGGACTTGGGTTCTAACCTGTTGCAG (site TACAGGACTCT)”, “TACAGGACTTGGGTTCTAACCTGTTGCAG (site TAGAGGACTCT)” is lower in “recombinant barcode read abundance (log10)” value: 2.15 for the first, 0.274 for the second.

“TACAGTTCTTGGGTTCTAACCTGTTGCTT (site TACAGTTCTAA)” and “TACAGTTCTTGGGTTCTAACCTGTTGCTT (site TACCATTCTAA)” are within 0.2 log units of each other in “recombinant barcode read abundance (log10)” value: 0.173 for the first, 0.107 for the second.

Compared with “TACATCCCTTGGGTTCTAACCTGTTGCCT (site TACATCCCTAG)”, “TACATCCCTTGGGTTCTAACCTGTTGCCT (site TACATCCCTCG)” is lower in “recombinant barcode read abundance (log10)” value: 0.915 for the first, 0.0996 for the second.

“TACATCCCTTGGGTTCTAACCTGTTGCCT (site TACATCCCTGG)” and “TACATCCCTTGGGTTCTAACCTGTTGCCT (site TACATCCCTTG)” are within 0.2 log units of each other in “recombinant barcode read abundance (log10)” value: 0.0929 for the first, 0.0395 for the second.

Going from “TACCCACCTTGGGTTCTAACCTGTTGCAG (site CCGAATTCTAA)” to “TACCCACCTTGGGTTCTAACCTGTTGCAG (site TACCCACCTCT)”, the “recombinant barcode read abundance (log10)” value rises from 0.159 to 2.41.

Going from “TACCCTACTTGGGTTCTAACCTGTTGCTA (site TACCCGCCTTA)” to “TACCCTACTTGGGTTCTAACCTGTTGCTA (site TACCCTACTTA)”, the “recombinant barcode read abundance (log10)” value rises from 0.146 to 0.736.

First: TACCGAGCTTGGGTTCTAACCTGTTGCTG (site CCTGTCACTTG)
Second: TACCGAGCTTGGGTTCTAACCTGTTGCTG (site TACCGAGCTCA)
The “recombinant barcode read abundance (log10)” value of the first is lower: 0.377 for the first, 0.604 for the second.

Compared with “TACCGCTCTTGGGTTCTAACCTGTTGCTT (site TACAGCTCTAA)”, “TACCGCTCTTGGGTTCTAACCTGTTGCTT (site TACCGCTCTAA)” is higher in “recombinant barcode read abundance (log10)” value: 0.0488 for the first, 1.01 for the second.

“TACCGCTCTTGGGTTCTAACCTGTTGCTT (site TACGGCTCTAA)” and “TACCGCTCTTGGGTTCTAACCTGTTGCTT (site TACTGCTCTAA)” are within 0.2 log units of each other in “recombinant barcode read abundance (log10)” value: 0.043 for the first, 0.158 for the second.

Going from “TACCGTCCTTGGGTTCTAACCTGTTGCAT (site TACCGTCCTAT)” to “TACCGTCCTTGGGTTCTAACCTGTTGCAT (site TATCGTCCTAT)”, the “recombinant barcode read abundance (log10)” value falls from 1.18 to 0.155.

Compared with “TACCGTCCTTGGGTTCTAACCTGTTGCGG (site GCGTCCTCTAA)”, “TACCGTCCTTGGGTTCTAACCTGTTGCGG (site TACCGTCCTCC)” is higher in “recombinant barcode read abundance (log10)” value: 0.312 for the first, 1.8 for the second.

Compared with “TACCTTACTTGGGTTCTAACCTGTTGCAG (site AGAAGATCTAG)”, “TACCTTACTTGGGTTCTAACCTGTTGCAG (site TACCTTACTCT)” is higher in “recombinant barcode read abundance (log10)” value: 0.17 for the first, 0.897 for the second.

Going from “TACGAATCTTGGGTTCTAACCTGTTGCCT (site TACGAATCTAG)” to “TACGAATCTTGGGTTCTAACCTGTTGCCT (site TACGAATCTCG)”, the “recombinant barcode read abundance (log10)” value falls from 0.881 to 0.0232.

First: TACGACACTTGGGTTCTAACCTGTTGCCT (site TACGACACTAG)
Second: TACGACACTTGGGTTCTAACCTGTTGCCT (site TCCGACACTAG)
The “recombinant barcode read abundance (log10)” value of the first is higher: 1.9 for the first, 0.0501 for the second.

Compared with “TACGACTCTTGGGTTCTAACCTGTTGCTT (site TACGACTCTAA)”, “TACGACTCTTGGGTTCTAACCTGTTGCTT (site TTCGACTCTTA)” is lower in “recombinant barcode read abundance (log10)” value: 1.73 for the first, 0.0713 for the second.

Going from “TACGCACCTTGGGTTCTAACCTGTTGCGA (site GTAATTACTAG)” to “TACGCACCTTGGGTTCTAACCTGTTGCGA (site TACGCACCTTC)”, the “recombinant barcode read abundance (log10)” value rises from 0.297 to 1.03.

Compared with “TACGCGGCTTGGGTTCTAACCTGTTGCCT (site TACGAGGCTAG)”, “TACGCGGCTTGGGTTCTAACCTGTTGCCT (site TACGCGGCTAG)” is higher in “recombinant barcode read abundance (log10)” value: 0.0562 for the first, 0.335 for the second.

“TACGCGGCTTGGGTTCTAACCTGTTGCCT (site TACGGGGCTAG)” and “TACGCGGCTTGGGTTCTAACCTGTTGCCT (site TACGTGGCTAG)” are within 0.2 log units of each other in “recombinant barcode read abundance (log10)” value: 0.208 for the first, 0.192 for the second.

“TACGCTCCTTGGGTTCTAACCTGTTGCCT (site TACGCTCCTAA)” and “TACGCTCCTTGGGTTCTAACCTGTTGCCT (site TACGCTCCTAC)” are within 0.2 log units of each other in “recombinant barcode read abundance (log10)” value: 0.0709 for the first, 0 for the second.

“TACGCTCCTTGGGTTCTAACCTGTTGCCT (site TACGCTCCTAG)” and “TACGCTCCTTGGGTTCTAACCTGTTGCCT (site TACGCTCCTAT)” are within 0.2 log units of each other in “recombinant barcode read abundance (log10)” value: 0.271 for the first, 0.452 for the second.

Going from “TACGGCTCTTGGGTTCTAACCTGTTGCTT (site TACAGCTCTAA)” to “TACGGCTCTTGGGTTCTAACCTGTTGCTT (site TACCGCTCTAA)”, the “recombinant barcode read abundance (log10)” value falls from 0.297 to 0.0429.

Going from “TACGGCTCTTGGGTTCTAACCTGTTGCTT (site TACGGCTCTAA)” to “TACGGCTCTTGGGTTCTAACCTGTTGCTT (site TACTGCTCTAA)”, the “recombinant barcode read abundance (log10)” value falls from 1.51 to 0.0509.

“TACTAAGCTTGGGTTCTAACCTGTTGCTT (site TACTAAGCTAA)” and “TACTAAGCTTGGGTTCTAACCTGTTGCTT (site TACTAAGCTAC)” are within 0.2 log units of each other in “recombinant barcode read abundance (log10)” value: 0.184 for the first, 0.0381 for the second.

Compared with “TACTAAGCTTGGGTTCTAACCTGTTGCTT (site TACTAAGCTAG)”, “TACTAAGCTTGGGTTCTAACCTGTTGCTT (site TACTAAGCTAT)” is higher in “recombinant barcode read abundance (log10)” value: 0.0797 for the first, 0.321 for the second.

Going from “TACTACCCTTGGGTTCTAACCTGTTGCGT (site TACTACCCTAC)” to “TACTACCCTTGGGTTCTAACCTGTTGCGT (site TGCCACCCTAC)”, the “recombinant barcode read abundance (log10)” value rises from 0.358 to 1.28.

“TACTCCTCTTGGGTTCTAACCTGTTGCGG (site CTAAAAGCTTG)” and “TACTCCTCTTGGGTTCTAACCTGTTGCGG (site TACTCCTCTCC)” are within 0.2 log units of each other in “recombinant barcode read abundance (log10)” value: 0.0539 for the first, 0.155 for the second.
